Source: patent US20240398942A1, “USE OF ANTI-CD40 ANTIBODY” (CHIA TAI TIANQING PHARMACEUTICAL GROUP CO., LTD., priority 2021, published 2024)
Where a name gives a salt, the structure may show the parent alone.

How the values were obtained:
[1] = tested on: human B-cell lymphoma Ramos cells; assay: Efficacy of anti-CD40 antibody and anlotinib, Ramos subcutaneous xenograft mouse model; assay type: in vivo
Procedure: Human B-cell lymphoma Ramos cells (purchased from the Cell Bank of the Chinese Academy of Sciences) were cultured in an RPMI1640 medium containing 10% of fetal bovine serum and penicillin-streptomycin. The cells were inoculated in a 37° C./5% CO2 incubator until the logarithmic growth phase and collected for grafting.
The mice used in this study were NOD-Scid mice (purchased from Shanghai Lingchang Biotechnology Co., Ltd.) aged about 6 weeks and bred in specific pathogen-free conditions in 12/12-hour light/dark cycles. The health status of the animals was monitored daily.
Each mouse was inoculated subcutaneously with 1×10^7 Ramos cells. When the tumor grew to 80-100 mm^3, the mice were divided into groups of 10 according to the tumor volume. The administration regimen is shown in Table 10, with the first dosing day designated as DO. Antibody huC1H1-V2 and IgG2 (Biointron, Cat. No. B107803) were both formulated to desired concentrations with normal saline, and anlotinib dihydrochloride was formulated at desired concentrations with distilled water. At the end of study (D14), the animals were sacrificed by CO2 anesthesia and dissected to give the tumors. The tumors were photographed.
The tumor diameters were measured twice weekly with a vernier caliper. Tumor volume (V)=½×a×b^2, wherein a and b denote length and width, respectively; T/C (%)=(T−T0)/(C−C0)×100, wherein T and C refer to the tumor volumes of the treatment group and the IgG2 control group on day 14, respectively, and TO and C0 refer to the tumor volumes of the treatment group and IgG2 control group on day 0, respectively; the tumor growth inhibition % (TGI %)=100−T/C (%). When the tumor regressed, the tumor growth inhibition % (TGI %)=100−(T−T0)/T0×100. If the tumor volume was smaller than the initial volume, i.e., T<T0 or C<C0, the outcome was defined as partial regression (PR); if the tumors completely disappeared, i.e., the outcome was defined as complete regression (CR).

Human CD40-his [2] = molecular target: T1, Human CD40-his (Homo sapiens, UniProt P25942); assay: Biacore surface plasmon resonance affinity and binding kinetics; conditions: for Kd: dissociation rate
T1 construct: His; purchased Acro biosystems CD0-H5228
T1 sequence (P25942 21-277): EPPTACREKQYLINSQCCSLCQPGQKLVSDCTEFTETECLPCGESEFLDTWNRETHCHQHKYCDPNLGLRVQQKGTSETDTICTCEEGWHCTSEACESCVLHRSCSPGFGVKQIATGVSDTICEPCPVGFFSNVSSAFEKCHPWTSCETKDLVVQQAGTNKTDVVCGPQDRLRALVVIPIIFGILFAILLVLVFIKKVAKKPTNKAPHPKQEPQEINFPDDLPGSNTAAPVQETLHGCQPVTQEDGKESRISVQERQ
From the text: (§1) The affinity and binding kinetics of the anti-CD40 antibody in the present application were characterized by a Biacore T200 system (GE Healthcare, Pittsburgh, PA, USA).
(§2) Briefly, a goat anti-human IgG (GE Healthcare, Cat. No. BR100839, human antibody capture kit) was covalently linked to a CM5 chip (GE Healthcare, Cat. No. BR100530, carboxymethylated dextran-coated chip) via the primary amine group using a standard amine coupling kit supplied by Biacore (GE Healthcare, Pittsburgh, PA, USA). Unreacted portions on the biosensor surface were blocked with ethanolamine. Then, the anti-CD40 antibody of the present application and two benchmark antibodies (BM1 (dacetuzumab, Genentech Inc., also referred to CD40-BM1, prepared in-house; the heavy and light chain amino acid sequences are set forth in SEQ ID NOs: 40 and 41, respectively) and BM2 (selicrelumab, Abgenix Inc., also referred to CD40-BM2, prepared in-house; the heavy and light chain amino acid sequences are set forth in SEQ ID NOS: 42 and 43, respectively)) at a concentration of 66.67 nM were directed through the chip at a flow rate of 10 μL/min. Then, serially diluted recombinant human CD40-his (Acro biosystems, Cat. No. CD0-H5228, serially 2-fold diluted from 80 nM in HBS-EP^+ buffer (supplied by Biacore)) or cynomolgus monkey CD40-his protein (Acro biosystems, Cat. No. CD0-C52H6, serially 2-fold diluted from 80 nM in HBS-EP^+ buffer (supplied by Biacore)) was directed through the chip at a flow rate of 30 μL/min. The antigen-antibody binding kinetics was tracked for 2 min and the dissociation kinetics was tracked for 10 min. The association and dissociation curves were fitted to a 1:1 Langmuir binding model using BIAcore evaluation software. KD, Ka, and Kd values were determined.

[3] = tested on: Cynomolgus monkey CD40-his; assay: as above; conditions: for Kd: dissociation rate
From the text: as §1, §2

Human CD40-his [4] = molecular target: T1, Human CD40-his; assay: Octet kinetics of humanized C1H1 antibodies; assay type: binding; conditions: Table 3, Octet
Procedure: After six days of culture in a shake flask, the cell supernatant containing the humanized antibodies huC1H1-V1 to huC1H1-V4 was harvested and the binding affinity of the antibodies to human CD40 was determined on an Octet system (Fortebio, Octet RED 96) according to the following procedures. Briefly, an anti-human IgG Fc capture (AHC) biosensor (from ForteBio) was pre-soaked in a 10 mM glycine solution (pH 1.5) for 3 s, and then soaked in a running buffer (PBST containing 0.5% w/v of BSA) for 3 s. The pre-soaking and soaking procedures were repeated 3 times. Then, the sensor was soaked in the cell supernatant containing the humanized anti-CD40 antibody, chimeric antibody C1H1 dissolved in HBS-EP^+ buffer at a concentration of 5 μg/mL, or the benchmark dissolved in HBS-EP^+ buffer at a concentration of 5 μg/mL for 120 s, and then soaked in the running buffer for 5 min. The new baseline was run in the running buffer for 180 s. The sensor was then soaked for 120 s in human CD40-his protein (Acro biosystems, Cat. No. CD0-H5228) 2-fold serially diluted from 40 nM in the running buffer and for 10 min in the running buffer […]. Finally, the sensor was pre-soaked in a 10 mM glycine solution (pH 1.5) for 3 s, and then soaked in the running buffer for 3 s. The pre-soaking and soaking procedures were repeated 3 times. […]

[5] = Table 2, Biacore, association rate
[6] = Table 5, Biacore, purified antibodies

Molecule	Mean tumor volume (mean ± SD) D 0 ([1]; baseline, huC1H1-V2 0.5 mg/kg i.p. once every 2 days × 8, anlotinib dihydrochloride 1 mg/kg intragastric daily × 15) [mm^3]	Mean tumor volume (mean ± SD) D 14 ([1]; huC1H1-V2 0.5 mg/kg i.p. once every 2 days × 8, anlotinib dihydrochloride 1 mg/kg intragastric daily × 15) [mm^3]	TGI D 14 (tumor growth inhibition rate) ([1]; huC1H1-V2 0.5 mg/kg i.p., anlotinib dihydrochloride 1 mg/kg intragastric) [%]	Tolerability (symptoms such as weight loss) ([1]; huC1H1-V2 0.5 mg/kg i.p., anlotinib dihydrochloride 1 mg/kg intragastric, tumor-bearing mice)	T/C D 14 ([1]; vs IgG2 group, huC1H1-V2 0.5 mg/kg i.p., anlotinib dihydrochloride 1 mg/kg intragastric) [%]	Ka (Human CD40-his [2]; [5]) [M⁻¹ s⁻¹]	Kd (Human CD40-his [2]; Table 2, Biacore) [s⁻¹]	Kd (Human CD40-his [2]; Table 5, Biacore) [s⁻¹]	Ka (Human CD40-his [2]; [6]) [M⁻¹ s⁻¹]	Ka [3, 5] [M⁻¹ s⁻¹]	Kd ([3]; Table 2, Biacore) [s⁻¹]	Kd ([3]; Table 5, Biacore) [s⁻¹]	Ka [3, 6] [M⁻¹ s⁻¹]	Kd (Human CD40-his [4]; dissociation rate) [s⁻¹]	Ka (Human CD40-his [4]; humanized antibodies in cell supernatant, chimeric and benchmark 5 μg/mL) [M⁻¹ s⁻¹]
COc1cc2c(Oc3ccc4[nH]c(C)cc4c3F)ccnc2cc1OCC1(N)CC1 [anlotinib dihydrochloride, 1-[[[4-(4-fluoro-2-methyl-1H-indol-5-yl)oxy-6-methoxyquinolin-7-yl]oxy]methyl]cyclopropylamine, reference compound]	85.3 ± 3.8	1602.8 ± 137.1	56	well tolerated	44										
BM1: benchmark antibody dacetuzumab, Genentech Inc., prepared in-house; heavy and light chain SEQ ID NOs: 40 and 41 [reference compound]						739000	0.006556	0.007562	803000	623000	0.006164	0.007397	764000		
BM2: benchmark antibody selicrelumab, Abgenix Inc., prepared in-house; heavy and light chain SEQ ID NOs: 42 and 43 [reference compound]								0.001616	206000			0.001508	173000	0.000979	874000
